From patent US10124004B2, “Pyrido[3,4-d]pyrimidine derivative and pharmaceutically acceptable salt thereof” (Teijin Pharma Limited, priority 2015, dated 2018) come the findings set out here.

Like-named read-outs stand apart in the source and are kept apart here. Bounds are passed on as bounds.

The target in one assay is T1, CDK4/cyclin D3 (Homo sapiens, UniProt P11802).
T1 construct: purchased Carna Biosciences, Inc. QS S Assist CDK4/Cyclin D3_FP Kit
Kind of assay: Human CDK4/cyclin D3 inhibitory activity (QS S Assist CDK4/Cyclin D3_FP Kit, IMAP fluorescence polarization). The class given is biochemical. The procedure, abridged: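 IMAP fluorescence polarization kit: CDK4/cyclin D3 at 12.5-25 ng/well with kit ATP/substrate/metal mix in 20 mM HEPES pH 7.4, 0.01% Tween20, 2 mM DTT, 45 min at room temperature. FP read at 485/535 nm after 30 min binding; IC50 from dose-response fit of percent inhibition versus enzyme and no-enzyme controls.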
In general terms: Polarisation of emitted light reports the rotation of a fluorescent probe.

The next assay deals with T2, CDK2/cyclin A2 (Homo sapiens, UniProt P24941).
T2 construct: purchased Carna Biosciences, Inc. QS S Assist CDK2/Cyclin A2_FP Kit
Kind of assay: Human CDK2/cyclin A2 inhibitory activity (QS S Assist CDK2/Cyclin A2_FP Kit, IMAP fluorescence polarization). The class given is biochemical. How it is done: Human CDK2/Cyclin A^2 Inhibitory Activity
Each compound was analyzed for CDK2/cyclin A2 inhibitory activity with an assay kit (QS S Assist CDK2/Cyclin A2_FP Kit, available from Carna Biosciences, Inc.). This assay kit determines kinase activity on the basis of the IMAP technology by Molecular Devices. Specifically, the kinase activity is determined through quantification of a variation in fluorescent polarization caused by binding of a kinase-phosphorylated fluorescent substance to an IMAP-binding reagent.
An assay buffer was prepared by 10-fold dilution of the 10× assay buffer attached to the kit with distilled water, and each solution was prepared with the assay buffer. The assay buffer contained 20 mM HEPES (pH 7.4), 0.01% Tween 20, and 2 mM dithiothreitol. A test compound solution was prepared by dilution of the test compound with dimethyl sulfoxide (DMSO) to a concentration 100 times higher than the final concentration and then 25-fold dilution with the assay buffer to a concentration four times higher than the final concentration. An ATP/substrate/Metal solution was prepared by five-fold dilution of the 5×ATP/substrate/Metal solution attached to the kit with the assay buffer. An enzyme solution was prepared by dilution of the CDK2/cyclin A2 attached to the kit with the assay buffer to a concentration twice higher than the final concentration (final concentration of CDK2/cyclin A2: 2.5 ng/well). A detection reagent was prepared by five-fold dilution of 5×IMAP-binding buffer A with distilled water and 400-fold dilution of the IMAP-binding reagent with the diluted buffer.
The test compound solution (5 μL/well) and the ATP/substrate/Metal solution (5 μL/well) were added to a 384-well plate, and the enzyme solution or the assay buffer (10 μL/well) was added to the plate (total amount of the reaction mixture: 20 μL/well) for initiation of enzymatic reaction. […] The reaction was performed at room temperature for 60 minutes, and the detection reagent (60 μL/well) was then added to the plate, followed by further reaction for 30 minutes at room temperature under light shielding conditions. Subsequently, fluorescent polarization was determined with a microplate reader at an excitation wavelength of 485 nm and an emission wavelength of 535 nm.
The percent inhibition of enzyme activity was calculated for each test compound (note: enzyme activity=100% in the case of addition of the enzyme solution and addition of DMSO instead of the test compound solution, whereas enzyme activity=0% in the case of addition of the assay buffer instead of the enzyme solution and addition of DMSO instead of the test compound solution). The percent inhibition of enzyme activity was fitted to a dose-response curve, to determine a 50% inhibitory concentration against CDK2/cyclin A2.
In each table, “+++” corresponds to IC50<10 nM, “++” 10 nM≤IC50<100 nM, and “+” 100 nM≤IC50.

Setting [1] is: 50% inhibitory concentration against CDK4/cyclin D3, given as class symbol.
[2] abbreviates: 50% inhibitory concentration against CDK2/cyclin A2, given as class symbol.
The mark [3] stands for this setting: Human CDK4/cyclin D3 inhibitory activity, read-out: CDK4 Activity symbol.
The mark [4] stands for this setting: Human CDK2/cyclin A2 inhibitory activity, read-out: CDK2 Activity symbol.

T1 sequence (P11802 whole entry): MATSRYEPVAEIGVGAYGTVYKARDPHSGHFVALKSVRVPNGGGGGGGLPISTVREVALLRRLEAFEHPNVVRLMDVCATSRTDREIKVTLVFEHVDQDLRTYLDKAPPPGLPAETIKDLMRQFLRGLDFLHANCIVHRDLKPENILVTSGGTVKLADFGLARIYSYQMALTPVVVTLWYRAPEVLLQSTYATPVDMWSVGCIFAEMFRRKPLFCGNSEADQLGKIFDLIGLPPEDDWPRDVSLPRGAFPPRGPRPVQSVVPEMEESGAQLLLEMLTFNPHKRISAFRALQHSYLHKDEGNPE
T1 sequence (P30281 whole entry partner): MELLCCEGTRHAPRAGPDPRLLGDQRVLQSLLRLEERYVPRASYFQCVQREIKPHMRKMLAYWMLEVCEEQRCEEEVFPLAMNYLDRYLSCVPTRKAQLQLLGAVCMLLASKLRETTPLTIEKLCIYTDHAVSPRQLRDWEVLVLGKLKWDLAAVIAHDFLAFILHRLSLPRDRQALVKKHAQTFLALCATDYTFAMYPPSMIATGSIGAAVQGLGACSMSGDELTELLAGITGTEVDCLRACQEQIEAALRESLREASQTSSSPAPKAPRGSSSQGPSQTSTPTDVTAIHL

As for `CCNc1nc([C@@H](C)O)cc2cnc(Nc3ccc(CN4CCN(C(C)CO)CC4)cn3)nc12` (single isomer, unassigned) [Compound 1089], the IC50 was less than 10 nM at CDK4/cyclin D3 (setting [1]) and no less than 100 nM against CDK2/cyclin A2 (setting [2]).
On the same counts, the results for `CCCNc1nc([C@@H](C)O)cc2cnc(Nc3ccc(CN4CCN(C(C)CO)CC4)cn3)nc12` (single isomer, unassigned) [Compound 1206] are less than 10 nM and no less than 100 nM.
On the same counts, the results for `CCCNc1nc([C@@H](C)O)cc2cnc(Nc3ccc(CN4CCN(C(C)CO)CC4)cn3)nc12` (single isomer, unassigned) [Compound 1207] are less than 10 nM and no less than 100 nM.
On to `FC(F)c1cc2cnc(Nc3ccc(N4CCNCC4)cn3)nc2c(NC2CCCC2)n1` [Compound 1], for which the results for the IC50 on CDK4/cyclin D3 (setting [3]) and at CDK2/cyclin A2 (setting [4]) were less than 10 nM and 10 to 100 nM, respectively.
On the same counts, the results for `FC(F)c1cc2cnc(Nc3ccc(N4CCNCC4)cn3)nc2c(N[C@H]2CCCNC2)n1` [Compound 2] are less than 10 nM and 10 to 100 nM.
On the same counts, the results for `FC(F)c1cc2cnc(Nc3ccc(N4CCNCC4)cn3)nc2c(NC2CCOCC2)n1` [Compound 4] are less than 10 nM and 10 to 100 nM.
On the same counts, the results for `CN(c1nc(C(F)F)cc2cnc(Nc3ccc(N4CCNCC4)cn3)nc12)C1CCCC1` [Compound 5] are less than 10 nM and no less than 100 nM.
As for `OCc1cc2cnc(Nc3ccc(N4CCNCC4)cn3)nc2c(NC2CCCC2)n1` [Compound 6], the IC50 on CDK4/cyclin D3 (setting [3]) was less than 10 nM; at CDK2/cyclin A2 (setting [4]), 10 to 100 nM.
On the same counts, the results for `CC(C)Oc1nc(C(F)F)cc2cnc(Nc3ccc(N4CCNCC4)cn3)nc12` [Compound 7] are less than 10 nM and no less than 100 nM.
On the same counts, the results for `CC(O)c1cc2cnc(Nc3ccc(N4CCNCC4)cn3)nc2c(NC2CCCC2)n1` (stereo not shown) [Compound 8] are less than 10 nM and no less than 100 nM.
As to `CC(C)Nc1nc(C(C)O)cc2cnc(Nc3ccc(N4CCNCC4)cn3)nc12` (stereo not shown) [Compound 9], the IC50 on CDK4/cyclin D3 (setting [3]) is less than 10 nM; on CDK2/cyclin A2 (setting [4]), no less than 100 nM.
On the same counts, the results for `CC(O)c1cc2cnc(Nc3ccc(N4CCNCC4)cn3)nc2c(N(C)C2CCCC2)n1` (stereo not shown) [Compound 10] are less than 10 nM and no less than 100 nM.
On the same counts, the results for `CC(O)c1cc2cnc(Nc3ccc(N4CCNCC4)cn3)nc2c(N(C)C2CCOCC2)n1` (stereo not shown) [Compound 11] are 10 to 100 nM and no less than 100 nM.
On to `CC(O)c1cc2cnc(Nc3ccc(N4CCNCC4)cn3)nc2c(NC2CCOCC2)n1` (stereo not shown) [Compound 12], for which the IC50 on CDK4/cyclin D3 (setting [3]) is less than 10 nM; on CDK2/cyclin A2 (setting [4]), no less than 100 nM.
`CC(C)(C)Nc1nc(C(F)F)cc2cnc(Nc3ccc(N4CCNCC4)cn3)nc12` [Compound 13]: the IC50 was less than 10 nM on CDK4/cyclin D3 (setting [3]) and 10 to 100 nM on CDK2/cyclin A2 (setting [4]).
On the same counts, the results for `CC(C)N(C)c1nc(C(F)F)cc2cnc(Nc3ccc(N4CCNCC4)cn3)nc12` [Compound 14] are less than 10 nM and no less than 100 nM.
For the compound `COCCNc1nc(C(F)F)cc2cnc(Nc3ccc(N4CCNCC4)cn3)nc12` [Compound 15], the IC50 was less than 10 nM at CDK4/cyclin D3 (setting [3]) and no less than 100 nM at CDK2/cyclin A2 (setting [4]).
On the same counts, the results for `CC(C)Nc1nc([C@H](C)O)cc2cnc(Nc3ccc(N4CCNCC4)cn3)nc12` [Compound 17] are less than 10 nM and no less than 100 nM.
On the same counts, the results for `FC(F)c1cc2cnc(Nc3ccc(N4CCNCC4)cn3)nc2c(NC2CC2)n1` [Compound 18] are less than 10 nM and no less than 100 nM.
On the same counts, the results for `CNc1nc(C(F)F)cc2cnc(Nc3ccc(N4CCNCC4)cn3)nc12` [Compound 19] are less than 10 nM and no less than 100 nM.
As for `CCNc1nc(C(F)F)cc2cnc(Nc3ccc(N4CCNCC4)cn3)nc12` [Compound 20], the IC50 at CDK4/cyclin D3 (setting [3]) is less than 10 nM; on CDK2/cyclin A2 (setting [4]), no less than 100 nM.
In the case of `CC(O)c1cc2cnc(Nc3ccc(N4CCNCC4)cn3)nc2c(NC2CC2)n1` (stereo not shown) [Compound 21], the IC50 at CDK4/cyclin D3 (setting [3]) is less than 10 nM; on CDK2/cyclin A2 (setting [4]) it was no less than 100 nM.
On the same counts, the results for `CNc1nc(C(C)O)cc2cnc(Nc3ccc(N4CCNCC4)cn3)nc12` (stereo not shown) [Compound 22] are 10 to 100 nM and no less than 100 nM.
